Experimental data from patent publication US20070293484A1, “Thiophene Heteroaryl Amines” (SUGEN, INC., priority 2004, published 2007).
Values joined by “and” are separate entries in the source; they are usually repeats but may differ in a detail not shown here. Identical values can stand only once.

Tests used:
GST-Flk1 = target: T1, GST-Flk1 (Mus musculus, UniProt P35918); experiment: GST-FLK-1 bioassay (ELISA, tyrosine kinase activity on poly(glu,tyr)); assay type: biochemical
T1 construct: GST-Flk1cd purified from sf9 recombinant baculovirus transformation (SUGEN, Inc.); host or cells: Sf9 insect cells (recombinant baculovirus)
T1 sequence (P35918 784-1345 limits assumed): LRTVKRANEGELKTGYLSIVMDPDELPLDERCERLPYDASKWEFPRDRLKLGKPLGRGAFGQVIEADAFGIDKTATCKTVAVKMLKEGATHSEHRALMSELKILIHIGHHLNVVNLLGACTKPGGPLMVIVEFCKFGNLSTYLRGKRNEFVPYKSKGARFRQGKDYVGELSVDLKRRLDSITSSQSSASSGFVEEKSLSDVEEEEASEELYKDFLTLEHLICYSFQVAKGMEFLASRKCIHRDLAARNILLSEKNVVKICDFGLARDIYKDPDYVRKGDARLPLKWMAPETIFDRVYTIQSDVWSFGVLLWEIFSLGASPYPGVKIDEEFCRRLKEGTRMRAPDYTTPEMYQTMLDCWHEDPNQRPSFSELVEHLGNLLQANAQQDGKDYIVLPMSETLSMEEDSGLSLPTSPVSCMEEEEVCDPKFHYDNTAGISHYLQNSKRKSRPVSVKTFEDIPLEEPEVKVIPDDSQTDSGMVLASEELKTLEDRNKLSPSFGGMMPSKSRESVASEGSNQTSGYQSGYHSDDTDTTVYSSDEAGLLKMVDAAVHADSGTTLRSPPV
Method: The assays described herein are performed in an ELISA (Enzyme-Linked Immunosorbent Sandwich Assay) format (Voller, et al., 1980, “Enzyme-Linked Immunosorbent Assay,” Manual of Clinical Immunology, 2d ed., Rose and Friedman, Am. Soc. Of Microbiology, Washington, D.C., pp. 359-371). The general procedure is as follows: a compound is introduced to cells expressing the test kinase, either naturally or recombinantly, for a selected period of time after which, if the test kinase is a receptor, a ligand known to activate the receptor is added. The cells are lysed and the lysate is transferred to the wells of an ELISA plate previously coated with a specific antibody recognizing the substrate of the enzymatic phosphorylation reaction. Non-substrate components of the cell lysate are washed away and the amount of phosphorylation on the substrate is detected with an antibody specifically recognizing phosphotyrosine compared with control cells that were not contacted with a test compound.
This assay analyzes the tyrosine kinase activity of GST-Flk1 on poly(glu,tyr) peptides.
• 1. Corning 96-well ELISA plates (Corning Catalog No. 5805-96). • 2. poly(glu,tyr) 4:1, lyophilizate (Sigma Catalog #P0275). • 3. Preparation of poly(glu,tyr)(pEY) coated assay plates: Coat 2 ug/well of poly(glu,tyr)(pEY) in 100 μL PBS, hold at room temperature for 2 hours or at 4° C. overnight. Cover plates well to prevent evaporation. • 4. PBS Buffer: for 1 L, mix 0.2 g KH2PO4, 1.15 g Na2HPO4, 0.2 g KCl and 8 g NaCl in approx. 900 ml dH2O. When all reagents have dissolved, adjust the pH to 7.2 with HCl. Bring total volume to 1 L with dH2O. • 5. PBST Buffer: to 1 L of PBS Buffer, add 1.0 ml Tween-20. • 6. TBB—Blocking Buffer: for 1 L, mix 1.21 g TRIS, 8.77 g NaCl, 1 ml TWEEN-20 in approximately 900 ml dH2O. Adjust pH to 7.2 with HCl. Add 10 g BSA, stir to dissolve. Bring total volume to 1 L with dH2O. Filter to remove particulate matter. • 7. 1% BSA in PBS: To make a 1× working solution, add 10 g BSA to approx. 990 ml PBS buffer, stir to dissolve. Adjust total volume to 1 L with PBS buffer, filter to remove particulate matter. • 8. 50 mM Hepes pH 7.5. • 9. GST-Flk1cd purified from sf9 recombinant baculovirus transformation (SUGEN, Inc.). • 10. 4% DMSO in dH2O. • 11. 10 mMATP in dH2O. • 12. 40 mM MnCl2 • 13. Kinase Dilution Buffer (KDB): mix 10 ml Hepes (pH 7.5), 1 ml 5M NaCl, 40 μL 100 mM sodium orthovanadate and 0.4 ml of 5% BSA in dH2O with 88.56 ml dH2O. • 14. NUNC 96-well V bottom polypropylene plates, Applied Scientific Catalog #AS-72092 • 15. EDTA: mix 14.12 g ethylenediaminetetraacetic acid (EDTA) to approx. 70 ml dH2O. Add 10 N NaOH until EDTA dissolves. Adjust pH to 8.0. Adjust total volume to 100 ml with dH2O. • 16. 1^0 Antibody Dilution Buffer: mix 10 ml of 5% BSA in PBS buffer with 89.5 ml TBST. • 17. Anti-phosphotyrosine monoclonal antibody conjugated to horseradish peroxidase (PY99 HRP, Santa Cruz Biotech). • 18. 2,2′-Azinobis(3-ethylbenzthiazoline-6-sulfonic acid (ABTS, Moss, Cat. No. ABST). • 19. 10% SDS. Procedure: • 1. Coat Corning 96-well ELISA plates with 2 μg of polyEY peptide in sterile PBS as described in step 3 of Materials and Reagents. • 2. Remove unbound liquid from wells by inverting plate. Wash once with TBST. Pat the plate on a paper towel to remove excess liquid. • 3. Add 100 μl of 1% BSA in PBS to each well. Incubate, with shaking, for 1 hr. at room temperature. • 4. Repeat step 2. • 5. Soak wells with 50 mM HEPES (pH7.5) (150 μl/well). • 6. Dilute test compound with dH2O/4% DMSO to 4 times the desired final assay concentration in 96-well polypropylene plates. • 7. Add 25 μl diluted test compound to ELISA plate. In control wells, place 25 μl of dH2O/4% DMSO. • 8. Add 25 μl of 40 mM MnCl2 with 4×ATP (2 μM) to each well. • 9. Add 25 μl 0.5M EDTA to negative control wells. • 10. Dilute GST-Flk1 to 0.005 μg (5 ng)/well with KDB. • 11. Add 50 μl of diluted enzyme to each well. • 12. Incubate, with shaking, for 15 minutes at room temperature. • 13. […]

PDGFR = target: T2, PDGFR (Homo sapiens, UniProt P09619); experiment: PDGFR bioassay (ELISA, in vitro kinase activity); assay type: biochemical; conditions: PDGFR-β expressing NIH 3T3 cell lysate; read-out: IC50 (μM) PDGF-R
T2 construct: SUGEN, Inc; host or cells: NIH 3T3 cell lysate; receptor captured on plate with monoclonal anti-PDGFR antibody 28D4C10
T2 sequence (P09619 33-1106, species assumed): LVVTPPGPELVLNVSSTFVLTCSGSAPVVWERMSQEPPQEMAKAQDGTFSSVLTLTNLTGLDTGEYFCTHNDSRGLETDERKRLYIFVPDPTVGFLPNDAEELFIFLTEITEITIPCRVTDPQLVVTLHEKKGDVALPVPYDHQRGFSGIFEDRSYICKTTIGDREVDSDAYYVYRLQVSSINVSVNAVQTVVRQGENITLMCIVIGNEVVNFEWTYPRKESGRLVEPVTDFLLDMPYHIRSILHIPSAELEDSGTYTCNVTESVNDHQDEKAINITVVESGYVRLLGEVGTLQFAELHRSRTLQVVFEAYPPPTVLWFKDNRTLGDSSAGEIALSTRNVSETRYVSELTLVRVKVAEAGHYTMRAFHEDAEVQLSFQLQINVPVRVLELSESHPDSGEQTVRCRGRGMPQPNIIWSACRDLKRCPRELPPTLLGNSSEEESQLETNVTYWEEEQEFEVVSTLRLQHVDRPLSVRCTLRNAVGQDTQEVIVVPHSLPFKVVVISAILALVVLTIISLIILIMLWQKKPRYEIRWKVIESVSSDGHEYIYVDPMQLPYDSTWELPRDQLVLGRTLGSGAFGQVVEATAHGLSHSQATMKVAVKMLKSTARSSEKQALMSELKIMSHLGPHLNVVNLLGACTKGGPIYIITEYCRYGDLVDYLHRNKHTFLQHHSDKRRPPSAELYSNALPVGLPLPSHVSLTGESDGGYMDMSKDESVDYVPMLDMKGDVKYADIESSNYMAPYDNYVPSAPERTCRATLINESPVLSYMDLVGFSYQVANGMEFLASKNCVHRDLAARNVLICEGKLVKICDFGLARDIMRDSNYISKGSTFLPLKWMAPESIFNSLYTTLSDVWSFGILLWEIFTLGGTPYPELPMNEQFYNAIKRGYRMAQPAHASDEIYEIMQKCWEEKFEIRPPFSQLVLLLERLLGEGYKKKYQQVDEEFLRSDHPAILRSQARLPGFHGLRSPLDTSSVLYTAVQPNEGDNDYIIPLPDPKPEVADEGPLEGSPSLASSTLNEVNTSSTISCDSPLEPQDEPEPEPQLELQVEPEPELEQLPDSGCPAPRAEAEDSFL

Row | SMILES | IC50 (GST-Flk1) | IC50 (PDGFR)
1 | CC(C)Nc1cccc(Nc2ncc(-c3ccsc3)cn2)c1 [Example 37, N-isopropyl-N′-(5-thien-3-ylpyrimidin-2-yl)benzene-1,3-diamine] | 3.7 µM | 0.56 µM
2 | CN1CCN(CCNCC(=O)Nc2cccc(Nc3ncc(-c4ccsc4)cn3)c2)CC1 [Example 58, 2-[2-(4-methyl-piperazin-1-yl)-ethylamino]-N-[3-(5-thiophen-3-yl-pyrimidin-2-ylamino)-phenyl]-acetamide] | 2.5 µM and 4 µM | 0.08 µM and 0.43 µM
3 | O=C(Nc1cccc(Nc2ncc(-c3ccsc3)cn2)c1)N1CCCC1CN1CCCC1 (stereo not drawn) [Example 48] | 3.5 µM | 0.21 µM
4 | O=C(CN1CCCC1)Nc1cccc(Nc2ncc(-c3ccsc3)cn2)c1 [Example 62, 2-pyrrolidin-1-yl-N-[3-(5-thiophen-3-yl-pyrimidin-2-ylamino)-phenyl]-acetamide] | 2.8 µM | 0.2 µM
5 | CCN(CC)CC(=O)Nc1ccc(Nc2ncc(-c3ccsc3)cn2)cc1 [Example 27, N-(4-(5-(thiophen-3-yl)pyrimidin-2-ylamino)phenyl)-2-(diethylamino)acetamide] | 6 µM | 0.55 µM
6 | O=C(Nc1ccc(Nc2ncc(-c3ccsc3)cn2)cc1)N1CCCC1CN1CCCC1 (stereo not drawn) [Example 33, 2-(pyrrolidin-1-ylmethyl)-N-{4-[(5-thien-3-ylpyrimidin-2-yl)amino]phenyl}pyrrolidine-1-carboxamide] | 4.55 µM | 0.66 µM
7 | O=C(CN1CCCC1)Nc1ccc(Nc2ncc(-c3ccsc3)cn2)cc1 [Example 29, 2-pyrrolidin-1-yl-N-{4-[(5-thien-3-ylpyrimidin-2-yl)amino]phenyl}acetamide] | 4 µM | 0.43 µM
8 | O=C(CN1CCC(N2CCCC2)CC1)Nc1cccc(Nc2ncc(-c3ccsc3)cn2)c1 [Example 55, 2-(4-pyrrolidin-1-yl-piperidine-1-yl)-N-[3-(5-thiophen-3-yl-pyrimidin-2-ylamino)-phenyl]-acetamide] | 2.7 µM | 0.19 µM
9 | c1cc(Nc2ncc(-c3ccsc3)cn2)cc(N2CCOCC2)c1 [Example 39, N-(3-morpholin-4-ylphenyl)-5-thien-3-ylpyrimidin-2-amine] | 2 µM | 0.15 µM
10 | O=C(CN1CCCC1CN1CCCC1)Nc1cccc(Nc2ncc(-c3ccsc3)cn2)c1 (stereo not drawn) [Example 47, N-(3-(5-(thiophen-3-yl)pyrimidin-2-ylamino)phenyl)-2-(2-((pyrrolidin-1-yl)methyl)pyrrolidin-1-yl)acetamide] | 2.3 µM | 0.18 µM
11 | CCN(CC)CCNCC(=O)Nc1cccc(Nc2ncc(-c3ccsc3)cn2)c1 [Example 57, 2-(2-diethylamino-ethylamino)-N-[3-(5-thiophen-3-yl-pyrimidin-2-ylamino)-phenyl]-acetamide] | 3.1 µM | 0.23 µM
12 | CN1CCN(Cc2ccc(C(=O)Nc3cccc(Nc4ncc(-c5ccsc5)cn4)c3)cc2)CC1 [Example 11, 4-[(4-methylpiperazin-1-yl)methyl]-N-{3-[(5-thien-3-ylpyrimidin-2-yl)amino]phenyl}benzamide] | 0.73 µM | 0.22 µM
13 | CCN(CC)c1cccc(Nc2ncc(-c3ccsc3)cn2)c1 [Example 38, N,N-diethyl-N′-(5-thien-3-ylpyrimidin-2-yl)benzene-1,3-diamine] | 3 µM | 1.8 µM
14 | O=C(Nc1ccccc1)c1cccc(Nc2ncc(-c3cccs3)cn2)c1 [Example 18, N-phenyl-3-[(5-thien-2-ylpyrimidin-2-yl)amino]benzamide] | > 20 µM | > 20 µM
15 | CC(=O)Nc1cccc(Nc2ncc(-c3cccs3)cn2)c1 [Example 14, N-{3-[(5-thien-2-ylpyrimidin-2-yl)amino]phenyl}acetamide] | 4.17 µM | 0.94 µM
16 | Nc1ccc(Nc2ncc(-c3ccsc3)cn2)cc1 [Example 8, N-(5-thien-3-ylpyrimidin-2-yl)benzene-1,4-diamine] | 4.14 µM | 0.55 µM
17 | O=C(NCCN1CCOCC1)Nc1ccc(Nc2ncc(-c3ccsc3)cn2)cc1 [Example 31, N-(2-morpholin-4-ylethyl)-N′-{4-[(5-thien-3-ylpyrimidin-2-yl)amino]phenyl}urea] | 5.2 µM | 0.78 µM
18 | O=C(CN1CCOCC1)Nc1ccc(Nc2ncc(-c3ccsc3)cn2)cc1 [Example 26, 2-morpholin-4-yl-N-{4-[(5-thien-3-ylpyrimidin-2-yl)amino]phenyl}acetamide] | 5.6 µM | 1.1 µM
19 | c1cc(-c2cnc(Nc3ccc(N4CCOCC4)cc3)nc2)cs1 [Example 3, N-(4-morpholin-4-ylphenyl)-5-thien-3-ylpyrimidin-2-amine] | > 20 µM | 0.15 µM
20 | CN1CCN(C(=O)Nc2ccc(Nc3ncc(-c4ccsc4)cn3)cc2)CC1 [Example 35, 4-methyl-N-{4-[(5-thien-3-ylpyrimidin-2-yl)amino]phenyl}piperazine-1-carboxamide] | 5.4 µM | 0.47 µM
21 | Nc1ccc(C(=O)Nc2ccc(Nc3ncc(-c4ccsc4)cn3)cc2)cc1 [Example 4, 4-amino-N-{4-[(5-thien-3-ylpyrimidin-2-yl)amino]phenyl}benzamide] | > 20 µM | 0.5 µM
22 | O=C(CN1CCOCC1)Nc1cccc(Nc2cnc(-c3ccsc3)cn2)c1 [Example 42, 2-morpholin-4-yl-N-{3-[(5-thien-3-ylpyrazin-2-yl)amino]phenyl}acetamide] | > 20 µM | > 20 µM
23 | O=C(Nc1ccc(Nc2ncc(-c3ccsc3)cn2)cc1)N1CCOCC1 [Example 34, N-{4-[(5-thien-3-ylpyrimidin-2-yl)amino]phenyl}morpholine-4-carboxamide] | 4.7 µM | 1 µM
24 | COc1ccc(Nc2ncc(-c3ccsc3)cn2)cc1 [Example 5, N-(4-methoxyphenyl)-5-thien-3-ylpyrimidin-2-amine] | > 20 µM | 0.55 µM
25 | CCN(CC)CCNC(=O)Nc1cccc(Nc2ncc(-c3ccsc3)cn2)c1 [Example 50] | 1.7 µM | 0.16 µM
26 | Nc1cccc(Nc2ncc(-c3csc4ccccc34)cn2)c1 [Example 20, N-[5-(1-benzothien-3-yl)pyrimidin-2-yl]benzene-1,3-diamine] | > 20 µM | > 20 µM
27 | CCN(CC)CC(=O)Nc1cccc(Nc2cnc(-c3ccsc3)cn2)c1 [Example 41, N-(3-(5-(thiophen-3-yl)pyrazin-2-ylamino)phenyl)-2-(diethylamino)acetamide] | > 20 µM | > 20 µM
